“Also recorded” adds a separate entry of the source. Structures can show the parent of a compound that is named as a salt.
Tests used:
[1] = test system: MSRV-Env induced EAE in C57BL/6 mice; assay: EAE clinical score, Example 3.A (EAE induced with MOG and MSRV-Env); type: in vivo; conditions: treatment from day 12 to day 29: GNbAc1 200 μg once, L-NAME 600 μg IP and SMT 1 mg IP every 4 days, DMF 1 mg daily in drinking water
Text: Pathogen free female C57BL/6 nice (6-8 weeks old) were purchased from the Charles River laboratories and maintained at the animal facilities for one week before immunization. One day before immunization, all mice have been weighed, and then evaluated on the Rotarod Test. Rotarod:
(§1) Animals were weighed and clinically scored 5 days per week according to the following criteria: 0=no signs; 1=tail paralysis or hyper-reflex of hind limb(s) or unilateral hind limb weakness; 2=bilateral hind limb or forelimb weakness; 3=plus unilateral paralysis or major deficit; 4=complete hind limb or forelimb paralysis; 5=plus partial paralysis or major deficit of opposite limbs; 6=moribund or dead. These were adapted from standard criteria, in order to reflect the more rapid induction of brain and cervical cord lesions with this model.
(§2) All groups of 6 (six) mice have been first injected s.c. in the neck on day 0 then in the dorsal flanks on day 7 and 14; with 200 μg of MOG/mouse+60 μg of MSRV-Env+IFA.
(§3) For Groups G to H, the treatments with GNbAc1, L-NAME, SMT and DMF alone or together with GNbAc1 with the doses indicated below, have been initiated on day 12 post immunization when the progression of EAE clinical symptoms was already observed. GNbAc1 humanized antibody was administered once, but L-Name or SMT was administered every 4 days until termination of the study on day 29. Regarding Groups E and H, attributed for the treatment with DMF, we have previously determined the volume of daily water consumption by each mouse and it has been determined that (in our condition), each mouse consumed around 3.5 ml drinking water per day. Thus, on the basis of this measurement, a dose of 1 mg DMF+0.08% Methocel per mouse were added to 3.5 ml drinking water daily.
350 ng of pertussis toxin (PTX) per animal was injected (i.p.) in all groups on the same day following each immunogen injection, and replicated 2 days later, as usual in EAE protocols in order to facilitate the migration lymphocytes through the blood-brain barrier.

rat OPCs [2] = assay: 3-nitrotyrosine (3-NT) positive rat OPCs after Env stimulation (immunostaining); type: cell-based; conditions: for Env dependent formation of 3-NT positive OPCs after pre-incubation: 100 μM for 30 min at 37° C. prior to Env stimulation
Procedure: Rat oligodendrocyte Precursor Cells (OPCs) were purified as previously described^22. OPCs were either kept in proliferation medium (Sato medium supplemented with 10 ng/ml recombinant human basic fibroblast growth factor and 10 ng/ml recombinant human platelet-derived growth factor-AA; R&D Systems, Wiesbaden-Nordenstadt, Germany), whereas differentiation was initiated by Sato medium supplemented with 0.5% fetal calf serum. Human fetal oligodendrocyte precursor cells (hOPC) and respective media were purchased from 3H Biomedical, Uppsala, Sweden. Recombinant Env was produced and purified by PX-Therapeutics (Grenoble, France) according to QC specifications of GeNeuro (Geneva, Switzerland) that supplied the protein batches. Endotoxin levels were <5 EU/mL as measured by the limulus amebocyte lysate (LAL) test. Env stimulation was carried out using three different approaches using i) recombinant full length Env protein diluted in differentiation medium at 10 ng/ml, 100 ng/ml and 1000 ng/ml, ii) recombinant Env protein coated on cell culture dishes at a surface concentration of 17.53 ng/cm^2 and iii) by seeding OPCs on transfected U343 glioblastoma cells overexpressing Env, respectively. Control stimulation experiments were conducted using the recombinant Env buffer preparation (20 mM histidine, 5% (w/v) sucrose, 0.01% (w/v) polysorbate 20, pH 6.0) at equal dilutions. NO concentration measurements in OPC supernatants were performed using a colorimetric nitric oxide assay kit (Merck-Millipore/Calbiochem, Darmstadt, Germany) and the absorbance was determined at 540 nm using an Anthos plate reader 2001 (Anthos labtec instruments, Salzburg, Austria). OPC morphology assessment was carried out using an anti-04 antibody Merck-Millipore/Chemicon, Darmstadt, Germany) taking into account cell diameter and the degree of process branching. […]

rat OPCs [3] = assay: Myelin protein (CNPase, MBP) expression of Env stimulated rat OPCs (immunostaining); type: cell-based; conditions: 100 μM in combination with surface bound recombinant Env for three days
Procedure: (§4) Rat oligodendrocyte Precursor Cells (OPCs) were purified as previously described^22. OPCs were either kept in proliferation medium (Sato medium supplemented with 10 ng/ml recombinant human basic fibroblast growth factor and 10 ng/ml recombinant human platelet-derived growth factor-AA; R&D Systems, Wiesbaden-Nordenstadt, Germany), whereas differentiation was initiated by Sato medium supplemented with 0.5% fetal calf serum. Human fetal oligodendrocyte precursor cells (hOPC) and respective media were purchased from 3H Biomedical, Uppsala, Sweden. Recombinant Env was produced and purified by PX-Therapeutics (Grenoble, France) according to QC specifications of GeNeuro (Geneva, Switzerland) that supplied the protein batches. Endotoxin levels were <5 EU/mL as measured by the limulus amebocyte lysate (LAL) test. […] NO concentration measurements in OPC supernatants were performed using a colorimetric nitric oxide assay kit (Merck-Millipore/Calbiochem, Darmstadt, Germany) and the absorbance was determined at 540 nm using an Anthos plate reader 2001 (Anthos labtec instruments, Salzburg, Austria). […]

rat OPCs [4] = assay: NO concentration in OPC supernatants (colorimetric nitric oxide assay); type: cell-based; conditions: Env stimulated OPCs; data not shown
Procedure: as §4

[5] = test system: MSRV-Env induced EAE in C57BL/6 mice; assay: Rotarod test, Example 3.A (MSRV-Env induced EAE); type: in vivo; conditions: Example 3.A doses, end of study period
Procedure: 9 and 8 days before immunization. Transfer of mice, in their home cages, from the holding room to the experimental room. Mice are habituated to the experimental room for 15 min. During the training period, each mouse was placed on the rotarod at a constant speed (4 rpm) if one mouse was falling, she was back on rotarod, when mice were comfortable on the rotarod, mice were running during 120 sec. All mice were returned to their cage, the speed was increased to 13 rpm and mice were again put on the rotarod for 120 sec. All mice were returned to their cage, the speed was increased to 19 rpm and mice were again put on the rotarod for 120 sec. The experimental-room environment were kept constant between test sessions with respect to temperature, and light intensity.
1 day before each immunization, mice were transferred in their home cages, from the holding room to the experimental room. Mice were habituated to the experimental room for 15 min. Mice then received two trials at 10 increasing speed levels, ranging from 7 to 40 rpm. Individual delays before falling off the rotarod (for the two trials at each speed level) was recorded until 60 sec. Thus, training and performance on the Rotarod system were determined for each animal.
The ROTAROD test results are expressed as kinetics of the mean of individual scores for each group with SEM indicated by bars, for each test day and for each test speed within the discriminating range for neuromotor impairment in present conditions (16 to 29 rpm).
They are calculated for each individual mouse, for each test day and for each speed value, as the relative gain or loss of time on Rotarod (before falling), compared to the first test day at the same speed (D-7, before starting the disease induction in relevant groups). The value is calculated as “Time on Rotarod at dayX”−“Time at Day-7 for the same mouse at the same speed”. Figures illustrate the kinetics for the different groups on the whole study period, for representative discriminative speed values when validated to differentiate ill from healthy animals in our conditions (e.g., too high or too low speed values either made healthy ones fall immediately or ill ones capable to sustain a slow movement).
as §2, §3

rat OPCs [6] = assay: iNOS expression in cultured rat OPCs stimulated with recombinant Env (quantitative RT-PCR); type: cell-based; conditions: 2 h pre-incubation (IRAK1/4 inhibitor I 3200 nM; TRIF inhibitory peptide 50 μM; anti-TLR4 antibody 15 μg/ml), then solid recombinant Env 8 h, GAPDH reference
Procedure: as §4, with “Recombinant Env was produced and purified by PX-Therapeutics (Grenoble, France) according to QC specifications of GeNeuro (Geneva, Switzerland) that supplied the protein batches.” left out
Transcription Polymerase Chain Reaction RNA purification from cultured cells was performed using the RNeasy procedure (Qiagen, Hilden, Germany). […] Quantitative determination of gene expression levels was performed on a 7900HT sequence detection system (Life Technologies/Applied Biosystems) using Power SybrGreen universal master mix (Life Technologies/Applied Biosystems). […]

[7] = test system: MSRV-Env induced EAE in C57BL/6 mice; assay: EAE clinical score, Example 3.C (GNbAC1 and Sodium Fumarate); type: in vivo; conditions: from day 12: GNbAC1 500 μg IP; Sodium Fumarate 10 mg daily in 3.5 ml drinking water; versus isotype control antibody
Text: as §1

COC(=O)/C=C/C(=O)OC [DMF, dimethyl fumarate]
EAE clinical score kinetics and recovery [1]: equivalent recovery at the end of the study

COC(=O)[C@H](N)CCCNC(=N)N[N+](=O)[O-] [D-NAME, D-N^G-nitroarginine methyl ester]
Env dependent formation of 3-NT positive OPCs after pre-incubation (rat OPCs [2]): not affected; also recorded: could not abolish the Env dependent 3-NT induction | MBP expression in Env stimulated OPCs (rescue of differentiation block) (rat OPCs [3]): not and not able to rescue myelin expression

COC(=O)[C@@H](N)CCCNC(=N)N[N+](=O)[O-] [L-NAME, L-N^G-nitroarginine methyl ester]
NO production after pre-incubation with L-NAME (rat OPCs [4]): significantly decreased | Env dependent formation of 3-NT positive OPCs after pre-incubation (rat OPCs [2]): significantly decreased; also recorded: reduced to control levels | EAE clinical score kinetics and recovery [1]: irregular recovery | EAE clinical score kinetics and recovery ([1]; listed as L-Name): lower recovery scores and kinetics than group B | MBP expression in Env stimulated OPCs (rescue of differentiation block) (rat OPCs [3]): rescue MBP expression; also recorded: abolishment of the Env-mediated OPC differentiation block | Time on Rotarod at 26 rpm relative to Day -7 [5]: improved kinetics and outcome | Time on Rotarod at 29 rpm relative to Day -7 [5]: improved kinetics and outcome

CSC(=N)N [SMT, S-methyl-isothiourea]
EAE clinical score kinetics and recovery [1]: irregular recovery; also recorded: lower recovery scores and kinetics than group B | Time on Rotarod at 23 rpm relative to Day -7 [5]: improved kinetics and outcome

O=C(Nc1nc2ccccc2n1CCN1CCOCC1)c1cccc([N+](=O)[O-])c1 [IRAK-1/4 inhibitor I, 1-(2-(4-Morpholinyl)ethyl)-2-(3-nitrobenzoylamino)benzimidazole]
iNOS expression in presence of Env after pre-incubation with inhibitor (rat OPCs [6]): significantly decreased iNOS expression levels | iNOS expression in presence of Env after pre-incubation with inhibitor (rat OPCs [6]; listed as IRAK1/4 inhibitor I): Reduction of iNOS expression

O=C([O-])/C=C/C(=O)[O-].[Na+].[Na+] [Sodium Fumarate, reference compound]
EAE clinical score kinetics and endpoint [7]: did not reveal any significant clinical improvement; also recorded: bad outcome at the end of the study; also recorded: no effect

CC(=O)NC(C(=O)O)C(C)(C)SN=O (racemic) [SNAP, S-Nitroso-N-acetyl-DL-penicillamine]
3-NT positive OPCs, NO donor positive control (rat OPCs [2]; SNAP 100 ng/ml): nitrotyrosinylation of almost all OPCs

Reference: patent publication US10752675B2, “Compounds for treating the remyelination blockade in diseases associated with the expression of HERV-W envelope protein” (GENEURO S.A., priority 2012, dated 2020)
